Measured values reported in patent publication US20230227466A1, “SUBSTITUTED THIENOPYRIMIDINES THAT INTERACT WITH THE RAS SUPERFAMILY FOR THE TREATMENT OF CANCERS, INFLAMMATORY DISEASES, RASOPATHIES, AND FIBROTIC DISEASE” (SHY Therapeutics, LLC, priority 2020, published 2023).
Read-outs that look alike come from different tables or passages of the source.

What was measured:
[1] = molecular target: T1, KRas G12D mutant (Homo sapiens, UniProt P01116, G12D); test: Ras GTP binding domain inhibition assay (labeled-GTP competition, cell-free)
T1 construct: made in house
In short: (§1)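 Immobilized His-tagged protein (Ni plate, 10-30 μg/mL, overnight 4° C); compound 20 μM or dilution series, 1% DMSO, 3 h RT, ±Sos 556-1049 last hour; Cy3/Cy5-GTP 100 nM, 45 min RT; 3× wash; bound fluorescence read.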

[2] = molecular target: T2, KRas Q61H mutant (Homo sapiens, UniProt P01116, Q61H); test: as above
T2 construct: made in house
In short: as §1

[3] = molecular target: T3, KRas G12C mutant (Homo sapiens, UniProt P01116, G12C); test: as above
T3 construct: made in house
In short: as §1

[4] = tested on: Akt phosphorylation in Panc-1 cells; test: Western AKT cell-based phosphorylation assay; set-up: species or system human; conditions: at 10 μM, values in brackets < > are activation %, not inhibition
In short: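 Phospho-Akt (Ser473) western blot of Panc-1 lysates, with Ponceau S to confirm uniform loading. Before lysis, cells were serum-starved overnight (0.5% FBS), incubated 6 h at 37° C with 10 μM compound in 0.3% DMSO and stimulated 15 min with 1.5 ng/ml EGF.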

[5] = molecular target: Rho-A (Homo sapiens, UniProt P61586); test: Ras GTP binding domain inhibition assay (labeled-GTP competition, cell-free); set-up: made in house
In short: as §1

[6] = molecular target: KRas wild type (Homo sapiens, UniProt P01116); test: as above; set-up: made in house
In short: as §1

[7] = molecular target: Rac-1 (Homo sapiens, UniProt P63000); test: as above; set-up: made in house
In short: as §1

[8] = tested on: MIA-PaCa-2 pancreatic cancer cell line (KRAS G12C); test: Cell proliferation assay (CellTiter 96 Aqueous One); format: cell-based; conditions: Homo sapiens; for inhibition at 10 µM: MIA PaCa-2, read-out: % inh cell proliferation (10 μM) in MIA PaCa-2
In short: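 After overnight attachment, compounds are added (10 μM final or serial dilutions) and left 2–4 days, with viability then measured by MTS.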

[9] = with SOS, read-out: KRas G12D mutant + SOS: % inh.
[10] = without SOS, read-out: KRas G12D mutant: % inh.
[11] = with SOS, read-out: KRas Q61H mutant + SOS: % inh.
[12] = without SOS, read-out: KRas Q61H mutant: % inh.
[13] = with SOS, read-out: KRas G12C mutant + SOS: % inh.
[14] = without SOS, read-out: KRas G12C mutant: % inh.
[15] = with SOS, read-out: Rho-A + SOS: % inh.
[16] = without SOS, read-out: Rho-A: % inh.
[17] = with SOS, read-out: KRas wild type + SOS: % inh.
[18] = without SOS, read-out: KRas wild type: % inh.
[19] = with SOS, read-out: Rac-1 + SOS: % inh.
[20] = without SOS, read-out: Rac-1: % inh.

SMILES	inhibition at 20 µM [1, 9]	inhibition at 20 µM [1, 10]	inhibition at 20 µM [2, 11]	inhibition at 20 µM [2, 12]	IC50 ([2]; with SOS)	inhibition at 20 µM [3, 13]	inhibition at 20 µM [3, 14]	% inh of AKT phosphorylation in PANC-1 [4]	inhibition at 20 µM [5, 15]	inhibition at 20 µM [5, 16]	inhibition at 20 µM [6, 17]	inhibition at 20 µM [6, 18]	inhibition at 20 µM [7, 19]	inhibition at 20 µM [7, 20]	IC50 ([8]; MIA PaCa-2, MIA PaCa-2)	inhibition at 10 µM [8]	IC50 ([8]; MIA PaCa-2, MIA-PaCa-2, 2-4 days, 10% FBS)
CO[C@H]1CC[C@@H](Nc2nc(-c3nccn3C)nc3sc(-c4cn(C)cn4)c(-c4ccccc4)c23)C1 (racemic) [Example 3, Rac-N-((1R,3S)-3-methoxycyclopentyl)-2-(1-methyl-1H-imidazol-2-yl)-6-(1-methyl-1H-imidazol-4-yl)-5-phenylthieno[2,3-d]pyrimidin-4-amine]	76 to 100%	76 to 100%	76 to 100%	76 to 100%	5 to 10 µM	76 to 100%	76 to 100%	0 (0% inhibition)	76 to 100%	51 to 75%	76 to 100%	51 to 75%	76 to 100%	76 to 100%	1 to 4.99 µM	76 to 100%	
CO[C@H]1C[C@@H](Nc2nc(-c3nccn3C)nc3sc(-c4cn(C)cn4)c(-c4ccccc4)c23)C1 [Example 2, N-((1s,3s)-3-methoxycyclobutyl)-2-(1-methyl-1H-imidazol-2-yl)-6-(1-methyl-1H-imidazol-4-yl)-5-phenylthieno[2,3-d]pyrimidin-4-amine]	51 to 75%	51 to 75%	76 to 100%	51 to 75%	1 to 4.99 µM	76 to 100%	76 to 100%	0 (0% inhibition)	76 to 100%	76 to 100%	76 to 100%	76 to 100%	51 to 75%	51 to 75%	1 to 4.99 µM	51 to 75%	
COCCn1c(-c2nc(O)c3scc(-c4ccccn4)c3n2)nc2ccccc21 [Compound 87, 2-(1-(2-Methoxyethyl)-1H-benzo[d]imidazol-2-yl)-7-(pyridin-2-yl)thieno[3,2-d]pyrimidin-4-ol]	26 to 50%	51 to 75%	26 to 50%	1 to 25%		1 to 25%	1 to 25%	<A>		51 to 75%	1 to 25%	26 to 50%		51 to 75%	5 to 10 µM	76 to 100%	> 3 µM
Oc1nc(-c2ccncn2)nc2c(-c3ccccn3)csc12 [Compound 88, 7-(Pyridin-2-yl)-2-(pyrimidin-4-yl)thieno[3,2-d]pyrimidin-4-ol]	26 to 50%	51 to 75%	26 to 50%	26 to 50%		26 to 50%	1 to 25%	<B>		51 to 75%	1 to 25%	26 to 50%		51 to 75%	> 10 µM	26 to 50%	
Cn1ccc(-c2nc(O)c3scc(-c4ccccn4)c3n2)n1 [Compound 90, 2-(1-Methyl-1H-pyrazol-3-yl)-7-(pyridin-2-yl)thieno[3,2-d]pyrimidin-4-ol]	1 to 25%	26 to 50%	26 to 50%	1 to 25%		1 to 25%	1 to 25%	0 (0% inhibition)		51 to 75%	0%	0%		26 to 50%	> 10 µM	1 to 25%	
COCCn1ccnc1-c1nc(O)c2scc(-c3ccncc3)c2n1 [Compound 94, 2-(1-(2-Methoxyethyl)-1H-imidazol-2-yl)-7-(pyridin-4-yl)thieno[3,2-d]pyrimidin-4-ol]	76 to 100%	76 to 100%	51 to 75%	51 to 75%		51 to 75%	51 to 75%	0 (0% inhibition)		76 to 100%	51 to 75%	51 to 75%		76 to 100%	5 to 10 µM	51 to 75%	
Cc1cnc(-c2nc(O)c3scc(-c4ccccn4)c3n2)s1 [Compound 92, 2-(5-Methylthiazol-2-yl)-7-(pyridin-2-yl)thieno[3,2-d]pyrimidin-4-ol]	51 to 75%	76 to 100%	51 to 75%	76 to 100%		51 to 75%	51 to 75%	0 (0% inhibition)		76 to 100%	51 to 75%	51 to 75%		76 to 100%	> 10 µM	0%	
Cn1nccc1-c1nc(O)c2scc(-c3ccccn3)c2n1 [Compound 91, 2-(1-Methyl-1H-pyrazol-5-yl)-7-(pyridin-2-yl)thieno[3,2-d]pyrimidin-4-ol]	1 to 25%	1 to 25%	26 to 50%	1 to 25%		1 to 25%	0%	0 (0% inhibition)		0%	0%	0%		0%	> 10 µM	0%	
Oc1nc(-c2cccnc2)nc2c(-c3ccccn3)csc12 [Compound 89, 7-(Pyridin-2-yl)-2-(pyridin-3-yl)thieno[3,2-d]pyrimidin-4-ol]	0%	0%	1 to 25%	1 to 25%		0%	0%	0 (0% inhibition)		1 to 25%	0%	0%		0%	> 10 µM	26 to 50%	
